We go through 2 substances from US9700633B2, “Conjugates of water soluble polymer-amino acid oligopeptide-drug, preparation method and use thereof” (JENKEM TECHNOLOGY CO. LTD., TIANJIN BRANCH, priority 2013, dated 2017).

Values joined by “and” are separate entries in the source; they are usually repeats but may differ in a detail not shown here. Identical values can stand only once.

Data set [1] can be described thus: In vitro degradation assay in 0.01 M PBS buffer solution. The class given is physicochemical. As for the experimental part:
In order to determine the degradation of the compounds in PBS buffer solution, the compounds DSR1˜6 were dissolved in 0.01 M PBS buffer solution, and were sampled every 30 min.

Data set [2] concerns PC-3 human prostate cancer. The data set can be described thus: Subcutaneous tumor model of PC-3 human prostate cancer. It is filed as in vivo, Balb/c nude mouse. As to conditions: 10 mg/kg. As for the experimental part: PC-3 cells were subcutaneously inoculated at the right side on the back of Balb/c nude mouse so as to establish a subcutaneous xenograft animal model of human prostate cancer. When the average tumor volume reached 160 mm^3, the experiment mice were divided to different groups, with 8 mice for each group, and the drugs were administrated by intravenous injections twice a week. The therapeutic effect was evaluated based on relative tumor proliferation ratio (T/C %).
PC-3 cell line was cultured in vitro in Ham's F12K medium with supplement of 10% fetal calf serum and L-glutamine (2 mM) at 37° C. in an atmosphere with 5% CO2 for the tumor cells culture. The tumor cells were routinely passaged twice a week. Tumor cells in exponential growth phase were collected, then were suspended in a mixture of PBS: matrigel with equal volume ratio and were placed on ice for tumor inoculation.
5×10^6 PC-3 cells were subcutaneously inoculated at the right side on the back of experiment mice. The mice were monitored at regular intervals for the tumor growth. When tumor grew to average 160 mm^3, the mice were divided to groups randomly according to the tumor volume and the mouse body weight, and were administrated.
(§1) All of the operations relevant to operation, nursing and treatment in this investigation were conducted according to guidelines approved by Association for Assessment and Accreditation of Laboratory Animal Care (AAALAC). After the incoluation, the incidence of disease and death of animals were observed every day. In the process of daily observation, the effects of tumor growth on normal behavior of animals (such as exercise, feeding, drinking, body weight change, eyes, hair) as well as any other abnormality were attentively monitored. Death and clinical symptom were recorded for animals in each group.
The calculation formula for tumor volume is as follows: tumor volume (mm^3)=0.5×(long diameter of the tumor×short diameter of the tumor^2). RTV and T/C ratios were calculated according to the tumor volumes of the treatment groups and the control group. RTV refers to relative tumor volume. T/C ratio refers to the percentage value of the relative tumor volumes of the treatment groups and the control group at a time point after the treatment, which reflects the anti-tumor effects of different treatment groups. At the end of the experiment, the pictures of the tumors were recorded according to the following two methods: 1. after euthanatized by CO2, the animals in each group were placed with tumor-bearing side up, and the pictures were taken and recorded respectively for each group; 2. after the tumor was removed, the tumor weight was weighed first. T/C (percentage value of the tumor weight between the treatment group and the control group) was calculated, and then the tumors from each group were placed in order. The pictures of the tumors were taken and recorded.
All the experiment results were expressed as average tumor volume±SE (standard error). For statistical analysis, one-way analysis of variance (one-way ANOVA) and LSD multiple comparisons method were used for the relative tumor volume data, comparing the significant difference of the relative tumor volumes between the groups. p<0.05 indicates the significant difference.

For data set [3], the system named is K562 human chronic myelogenous leukemia. Put plainly: Subcutaneous tumor model of K562 human chronic myelogenous leukemia. It is filed as in vivo, NOD/SCID mice. As to conditions: 5 mg/kg; for Relative tumor volume (x ± SE) / Tumor volume (x ± SE): intravenous twice a week. As for the experimental part: K562 cells were subcutaneously inoculated at the back of NOD/SCID mice right side so as to establish a subcutaneous xenograft animal model of human chronic myelogenous leukemia. When the average tumor volume reached 130 mm^3, the experiment mice were divided to different groups, with 8 mice for each group, and the drugs were administrated by intravenous injections twice a week. The effect was evaluated based on relative tumor proliferation ratio (T/C %).
Tumor cells were routinely passaged twice a week. Tumor cells in exponential growth phase were collected, then suspended in a mixture of PBS: matrigel with equal volume ratio and placed on ice for tumor inoculation.
5×10^6 K562 cells were subcutaneously inoculated at the back of experiment mice right side. The mice were monitored at regular intervals for the tumor growth. When tumor grew to average 130 mm^3, the mice were divided to groups randomly according to tumor volume and mouse body weight, and were administrated.
as §1
The calculation formula for tumor volume is as follows: tumor volume (mm^3)=0.5×(long diameter of the tumor×short diameter of the tumor^2). RTV and T/C ratios were calculated according to the tumor volumes of the treatment groups and the control group. RTV refers to relative tumor volume. T/C ratio refers to the percentage value of the average tumor volumes between the treatment groups and the control group at a time point after the treatment, which reflects the anti-tumor effects of different treatment groups.
All the experiment results were expressed as the average tumor volume±SE (standard error). For statistical analysis, since the variances of relative tumor volume data were different, one-way analysis of variance (one-way ANOVA) and Dunnett T3 method for multiple comparisons were used to compare significant difference of relative tumor volumes between the groups. p<0.05 indicated the significant difference.

Where [4] appears, read: intravenous twice a week, 22nd day after grouping.

In data set [1] (at 90 min), “conjugate of methoxy PEG dipeptide of glutamic acid and glycine (20K)-dasatinib [DSR-2]” registered a degradation of 50%.

For “conjugate of methoxy PEG glutamic acid dipeptide valine (20K)-dasatinib [DSR-4]”, the “T/C (relative tumor proliferation ratio)” value was 47% in data set [2] (22nd day after grouping, compared with the solvent control group); 61% in data set [2] (25th day after grouping, compared with the dasatinib group); 1.6% in data set [3] (14th day after the grouping, compared with the solvent control group); 45% in data set [3] (21st day after grouping, compared with the dasatinib group). Also, the “Relative tumor volume (x ± SE)” value in data set [2] (setting [4]) is 745.9 ± 54.4; in data set [2] (intravenous twice a week, 25th day after grouping), 751.9 ± 78.9; in data set [3] (14th day after the grouping), 29.1 ± 4.8; in data set [3] (21st day after grouping) it was 130 ± 28. The “Tumor volume (x ± SE)” value is 1187 mm^3 and 1187 ± 67 mm^3 in data set [2] (setting [4]); 39.2 mm^3 and 39.2 ± 6 mm^3 in data set [3] (14th day after the grouping); 176 mm^3 and 176 ± 59 mm^3 in data set [3] (21st day after grouping). In addition, the degradation in data set [1] (at 240 min) stood at 20%.
